Measurements published in patent publication US10696672B2 (Pliant Therapeutics, Inc., priority 2016, dated 2020).

Each compound was assayed against recombinant human integrin αvβ6 (Homo sapiens (Human), UniProt P06756+P18564) (assay: Solid phase integrin αvβ6 binding assay). Settings: plate-coated integrin; recombinant TGFβ1 LAP 0.67 ug/ml as ligand; 2 hours at 25° C.; read-out: αvβ6 Inhibition IC50 (nM) - range.
Method: Example B1—Solid Phase Integrin αvβ6 Binding Assay
Microplates were coated with recombinant human integrin αvβ6 (2 ug/ml) in PBS (100 ul/well 25° C., overnight). The coating solution was removed, washed with wash buffer (0.05% Tween 20; 0.5 mM MnCl2; in 1×TBS). Plate was blocked with 200 ul/well of Block Buffer (1% BSA; 5% sucrose; 0.5 mM MnCl2; in 1×TBS) at 37° C. for 2 h. Dilutions of testing compounds and recombinant TGFβ1 LAP (0.67 ug/ml) in binding buffer (0.05% BSA; 2.5% sucrose; 0.5 mM MnCl2; in 1×TBS) were added. The plate was incubated for 2 hours at 25° C., washed, and incubated for 1 hour with Biotin-Anti-hLAP. Bound antibody was detected by peroxidase-conjugated streptavidin. The IC50 values for testing compounds were calculated by a four-parameter logistic regression.
The compounds tested were compound samples prepared according to procedures described in the Synthetic Examples section, with the stereochemical purity as indicated in the Examples indicated.

Chain of recombinant human integrin αvβ6 (P06756 31-992): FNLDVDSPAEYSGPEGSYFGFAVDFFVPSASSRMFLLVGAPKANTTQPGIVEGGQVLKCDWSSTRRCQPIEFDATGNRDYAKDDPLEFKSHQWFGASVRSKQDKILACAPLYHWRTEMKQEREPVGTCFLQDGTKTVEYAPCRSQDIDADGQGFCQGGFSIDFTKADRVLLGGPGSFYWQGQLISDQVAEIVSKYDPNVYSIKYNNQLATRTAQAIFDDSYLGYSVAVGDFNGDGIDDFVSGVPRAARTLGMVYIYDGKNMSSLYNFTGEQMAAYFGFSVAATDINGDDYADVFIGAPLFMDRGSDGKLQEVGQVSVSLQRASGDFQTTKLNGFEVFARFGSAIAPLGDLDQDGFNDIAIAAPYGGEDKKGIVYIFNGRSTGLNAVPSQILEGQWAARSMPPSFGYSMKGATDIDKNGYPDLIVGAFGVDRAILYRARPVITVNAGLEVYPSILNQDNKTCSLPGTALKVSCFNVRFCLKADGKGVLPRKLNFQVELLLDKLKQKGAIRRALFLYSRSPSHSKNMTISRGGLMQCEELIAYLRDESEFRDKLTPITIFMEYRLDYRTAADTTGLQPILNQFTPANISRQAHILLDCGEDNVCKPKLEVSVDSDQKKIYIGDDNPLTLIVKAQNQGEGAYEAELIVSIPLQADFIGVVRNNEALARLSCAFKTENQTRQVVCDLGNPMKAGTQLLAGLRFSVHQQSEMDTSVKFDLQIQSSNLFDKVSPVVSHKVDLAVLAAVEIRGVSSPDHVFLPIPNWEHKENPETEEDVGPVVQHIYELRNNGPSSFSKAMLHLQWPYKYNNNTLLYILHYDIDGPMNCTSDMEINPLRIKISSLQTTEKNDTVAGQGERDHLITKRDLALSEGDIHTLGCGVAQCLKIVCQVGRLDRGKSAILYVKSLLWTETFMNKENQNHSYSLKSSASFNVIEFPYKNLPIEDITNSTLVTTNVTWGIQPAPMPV
Chain of recombinant human integrin αvβ6 (P18564 22-707): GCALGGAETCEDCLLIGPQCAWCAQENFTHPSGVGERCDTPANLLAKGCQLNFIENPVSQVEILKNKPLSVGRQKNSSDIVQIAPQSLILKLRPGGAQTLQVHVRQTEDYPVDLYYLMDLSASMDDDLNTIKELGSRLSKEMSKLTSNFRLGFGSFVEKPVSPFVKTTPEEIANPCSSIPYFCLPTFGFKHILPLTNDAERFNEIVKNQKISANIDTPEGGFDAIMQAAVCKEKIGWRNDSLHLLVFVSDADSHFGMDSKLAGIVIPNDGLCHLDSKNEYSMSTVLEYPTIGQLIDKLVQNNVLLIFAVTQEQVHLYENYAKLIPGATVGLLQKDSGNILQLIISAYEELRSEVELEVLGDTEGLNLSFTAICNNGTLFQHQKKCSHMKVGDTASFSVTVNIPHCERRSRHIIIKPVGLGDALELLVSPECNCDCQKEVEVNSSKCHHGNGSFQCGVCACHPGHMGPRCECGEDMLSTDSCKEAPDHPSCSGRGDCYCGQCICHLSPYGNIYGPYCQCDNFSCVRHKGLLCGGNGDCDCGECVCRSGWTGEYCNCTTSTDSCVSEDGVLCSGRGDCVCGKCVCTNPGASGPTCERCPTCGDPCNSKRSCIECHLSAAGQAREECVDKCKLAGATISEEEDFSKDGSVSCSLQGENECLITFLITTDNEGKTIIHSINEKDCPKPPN

Row | Structure (SMILES) | IC50 [nM]
1 | CC(C)(C)OC(=O)N[C@@H](CCN1CC(CCc2ccc3c(n2)NCCC3)CC(F)(F)C1)C(=O)O (stereo partly shown) [Compound 40] | 250 to 1000
2 | CC(C)(Cc1ccccc1)C(=O)N[C@@H](CCN1CC(OCCc2ccc3c(n2)NCCC3)C1)C(=O)O [Compound 130] | 250 to 1000
3 | O=C(O)[C@H](CCN1CC[C@@H](CCc2ccc3c(n2)NCCC3)C1)NC(=O)[C@@H]1CCCN1Cc1ccccc1 [Compound 36] | < 50
4 | CC(C)(C(=O)N[C@@H](CCN1CC(OCCc2ccc3c(n2)NCCC3)C1)C(=O)O)c1ccccc1 [Compound 120] | 50 to 250
5 | O=C(N[C@@H](CCN1CCC[C@](F)(CCc2ccc3c(n2)NCCC3)C1)C(=O)O)C1CCC(F)(F)CC1 [Compound 109] | 50 to 250
6 | O=C(N[C@@H](CCN1CC[C@@H](OCCc2ccc3c(n2)NCCC3)C1)C(=O)O)[C@@H]1CCN(c2ccccn2)C1 [Compound 125] | 250 to 1000
7 | O=C(O)[C@H](CCN1CC[C@@H](CCc2ccc3c(n2)NCCC3)C1)NC(=O)[C@@H]1CCCN1Cc1ncccn1 [Compound 90] | < 50
8 | O=C(N[C@@H](CCN1CC[C@@H](CCc2ccc3c(n2)NCCC3)C1)C(=O)O)C1CCC(F)(F)CC1 [Compound 21a, (S)-2-(4,4-difluorocyclohexane-1-carboxamido)-4-((R)-3-(2-(5,6,7,8-tetrahydro-1,8-naphthyridin-2-yl)ethyl)pyrrolidin-1-yl)butanoic acid] | < 50
9 | O=C(N[C@@H](CCN1CC(CCc2ccc3c(n2)NCCC3)C1)C(=O)O)C1CCCN1Cc1ccccc1 (stereo partly shown) [Compound 135] | > 1000
10 | COCCOc1cccc(C(=O)N[C@@H](CCN2CCC[C@@](F)(CCc3ccc4c(n3)NCCC4)C2)C(=O)O)c1 [Compound 100] | 50 to 250
11 | O=C(N[C@@H](CCN1CC[C@@H](OCc2ccc3c(n2)NCCC3)C1)C(=O)O)c1ccccc1 [Compound 112] | > 1000
12 | CCC(CC)C(=O)N[C@@H](CCN1CCC[C@@](F)(CCc2ccc3c(n2)NCCC3)C1)C(=O)O [Compound 94] | 50 to 250
13 | CCCCC(=O)N1CCCC[C@H]1C(=O)N[C@@H](CCN1CC[C@@H](CCc2ccc3c(n2)NCCC3)C1)C(=O)O [Compound 73] | < 50
14 | O=C(N[C@@H](CCN1CC[C@@H](OCCc2ccc3c(n2)NCCC3)C1)C(=O)O)c1c(Cl)cccc1Cl [Compound 114] | 250 to 1000
15 | O=C(O)[C@H](CCN1CC(OCCc2ccc3c(n2)NCCC3)C1)NC(=O)[C@@H]1CCCN1c1ccccc1 [Compound 127] | < 50
16 | O=C(N[C@@H](CCN1CCC[C@@](F)(CCc2ccc3c(n2)NCCC3)C1)C(=O)O)c1cc(F)cc(F)c1 [Compound 97] | 50 to 250
17 | O=C(N[C@@H](CCN1CC[C@@H](OCCc2ccc3c(n2)NCCC3)C1)C(=O)O)[C@H]1CCN(c2ccccn2)C1 [Compound 126] | > 1000
18 | CCC(CC)C(=O)N[C@@H](CCN1C2CCC1C(CCc1ccc3c(n1)NCCC3)C2)C(=O)O (stereo partly shown) [Compound 145] | > 1000
19 | Cn1ncc2ccc(C(=O)N[C@@H](CCN3CCC[C@@](F)(CCc4ccc5c(n4)NCCC5)C3)C(=O)O)cc21 [Compound 106] | 50 to 250
20 | O=C(N[C@@H](CCN1CC[C@@H](CCc2ccc3c(n2)NCCC3)C1)C(=O)O)c1cc(OC(F)(F)F)ccc1Cl [Compound 11a] | < 50
21 | O=C(NC(CCN1CC[C@@H](CCc2ccc3c(n2)NCCC3)C1)C(=O)O)C1CCN(C2CC2)CC1 (stereo partly shown) [23a and 23c] | 50 to 250
22 | O=C(O)[C@H](CCN1CC[C@@H](CCc2ccc3c(n2)NCCC3)C1)NC(=O)[C@@H]1CCCN1c1ccccc1 [Compound 43] | < 50
23 | O=C(N[C@@H](CCN1CC[C@@H](OCCc2ccc3c(n2)NCCC3)C1)C(=O)O)C1CCOCC1 [Compound 117] | 250 to 1000
24 | O=C(N[C@@H](CCN1CCC[C@@](F)(CCc2ccc3c(n2)NCCC3)C1)C(=O)O)c1cccc(F)c1Cl [Compound 62] | 50 to 250
25 | O=C(O)[C@H](CCN1CC(CCc2ccc3c(n2)NCCC3)C1)NC(=O)[C@@H]1CCNC1Cc1ccccc1 (stereo partly shown) [Compound 143] | > 1000
26 | CC(C)(Cc1ccccc1)C(=O)N[C@@H](CCN1CC[C@@H](OCCc2ccc3c(n2)NCCC3)C1)C(=O)O [Compound 119] | 250 to 1000
27 | CC(C)(C)C(=O)N[C@H](CCN1CC[C@@H](CCc2ccc3c(n2)NCCC3)C1)C(=O)O [Compound 1c, (R)-2-pivalamido-4-((R)-3-(2-(5,6,7,8-tetrahydro-1,8-naphthyridin-2-yl)ethyl)pyrrolidin-1-yl)butanoic acid] | < 50

The next lines start with the values.

Row | IC50 [nM] | Structure (SMILES)
28 | < 50 | N#Cc1cccc(C(=O)N[C@@H](CCN2CC[C@@H](CCc3ccc4c(n3)NCCC4)C2)C(=O)O)c1 [Compound 48]
29 | < 50 | CC(C)(Cc1ccccc1)C(=O)N[C@@H](CCN1CC[C@@H](CCc2ccc3c(n2)NCCC3)C1)C(=O)O [Compound 45]
30 | < 50 | O=C(N[C@@H](CCN1CC[C@@H](CCc2ccc3c(n2)NCCC3)C1)C(=O)O)c1cnccn1 [Compound 50]
31 | < 50 | Cn1nccc1-c1cccc(C(=O)N[C@H](CCN2CC[C@@H](CCc3ccc4c(n3)NCCC4)C2)C(=O)O)c1 [Compound 86]
32 | < 50 | Cn1nc(-c2ccccc2)c2cccc(C(=O)N[C@@H](CCN3CC[C@@H](CCc4ccc5c(n4)NCCC5)C3)C(=O)O)c21 [Compound 82]
33 | < 50 | Cn1cc(-c2cccc(C(=O)N[C@@H](CCN3CC[C@@H](CCc4ccc5c(n4)NCCC5)C3)C(=O)O)c2)cn1 [Compound 58]
34 | 50 to 250 | O=C(N[C@@H](CCN1CC[C@@H](CCc2ccc3c(n2)NCCC3)C1)C(=O)O)c1ccccn1 [Compound 17a, (S)-2-(picolinamido)-4-((R)-3-(2-(5,6,7,8-tetrahydro-1,8-naphthyridin-2-yl)ethyl)pyrrolidin-1-yl)butanoic acid]
35 | < 50 | O=C(N[C@@H](CCN1CC[C@@H](CCc2ccc3c(n2)NCCC3)C1)C(=O)O)c1cccc(-c2cccs2)c1 [Compound 55]
36 | < 50 | O=C(N[C@@H](CCN1CC[C@@H](CCc2ccc3c(n2)NCCC3)C1)C(=O)O)c1cccc(-c2ccccc2)c1 [Compound 56]
37 | < 50 | O=C(N[C@@H](CCN1CC[C@@H](CCc2ccc3c(n2)NCCC3)C1)C(=O)O)c1ccc2cnn(C(F)F)c2c1 [Compound 29a, (S)-2-(1-(difluoromethyl)-1H-indazole-6-carboxamido)-4-((R)-3-(2-(5,6,7,8-tetrahydro-1,8-naphthyridin-2-yl)ethyl)pyrrolidin-1-yl)butanoic acid]
38 | < 50 | O=C(N[C@@H](CCN1CC[C@@H](CCc2ccc3c(n2)NCCC3)C1)C(=O)O)c1cccc(F)c1Cl [Compound 5a, (S)-2-(2-chloro-3-fluorobenzamido)-4-((R)-3-(2-(5,6,7,8-tetrahydro-1,8-naphthyridin-2-yl)ethyl)pyrrolidin-1-yl)butanoic acid]
39 | > 1000 | O=C(N[C@@H](CCN1CC[C@@H](CCc2ccc3c(n2)NCCC3)C1)C(=O)O)c1ccc(N2CCOCC2)cc1 [Compound 16a, (S)-2-(4-morpholinobenzamido)-4-((R)-3-(2-(5,6,7,8-tetrahydro-1,8-naphthyridin-2-yl)ethyl)pyrrolidin-1-yl)butanoic acid]
40 | < 50 | O=C(N[C@@H](CCN1CC[C@@H](CCc2ccc3c(n2)NCCC3)C1)C(=O)O)c1cc(F)cc(C(F)(F)F)c1 [Compound 76]
41 | < 50 | O=C(N[C@@H](CCN1CC[C@@H](CCc2ccc3c(n2)NCCC3)C1)C(=O)O)c1cccc(C(F)(F)F)c1 [Compound 9a, (S)-4-((R)-3-(2-(5,6,7,8-tetrahydro-1,8-naphthyridin-2-yl)ethyl)pyrrolidin-1-yl)-2-(3-(trifluoromethyl)benzamido)butanoic acid]
42 | 250 to 1000 | O=C(N[C@H](CCN1CC[C@@H](CCc2ccc3c(n2)NCCC3)C1)C(=O)O)c1c(Cl)cccc1Cl [Compound 6c, (R)-2-(2,6-dichlorobenzamido)-4-((R)-3-(2-(5,6,7,8-tetrahydro-1,8-naphthyridin-2-yl)ethyl)pyrrolidin-1-yl)butanoic acid]
43 | 50 to 250 | Cn1ncc2cc(C(=O)N[C@@H](CCN3CC[C@@H](CCc4ccc5c(n4)NCCC5)C3)C(=O)O)ccc21 [Compound 25a, (S)-2-(1-methyl-1H-indazole-5-carboxamido)-4-((R)-3-(2-(5,6,7,8-tetrahydro-1,8-naphthyridin-2-yl)ethyl)pyrrolidin-1-yl)butanoic acid]
44 | < 50 | CC(C)Cn1ncc2c(C(=O)N[C@@H](CCN3CC[C@@H](CCc4ccc5c(n4)NCCC5)C3)C(=O)O)cccc21 [Compound 61]
45 | < 50 | Cc1cc(C)n(-c2cccc(C(=O)N[C@@H](CCN3CC[C@@H](CCc4ccc5c(n4)NCCC5)C3)C(=O)O)c2)n1 [Compound 13a, (S)-2-(3-(3,5-dimethyl-1H-pyrazol-1-yl)benzamido)-4-((R)-3-(2-(5,6,7,8-tetrahydro-1,8-naphthyridin-2-yl)ethyl)pyrrolidin-1-yl)butanoic acid]
46 | < 50 | Cn1cc(-c2cccc(C(=O)N[C@H](CCN3CC[C@@H](CCc4ccc5c(n4)NCCC5)C3)C(=O)O)c2)cn1 [Compound 87]
47 | < 50 | CC(C)n1ncc2c(C(=O)N[C@@H](CCN3CC[C@@H](CCc4ccc5c(n4)NCCC5)C3)C(=O)O)cccc21 [Compound 60]
48 | < 50 | O=C(N[C@H](CCN1CC[C@@H](CCc2ccc3c(n2)NCCC3)C1)C(=O)O)c1cccc(-c2ccccc2)c1 [Compound 83]
49 | < 50 | O=C(N[C@@H](CCN1CCCC(CCc2ccc3c(n2)NCCC3)C1)C(=O)O)c1ccccc1 (stereo partly shown) [Compound 54]
